Laboratory results as given in publication PMC6310865 (Proceedings of the National Academy of Sciences of the …, 2018).

System: CD4+ T cells
Format: cell-based, human
Details: all cases versus controls; […]

Substance	Tetramer-positive CD4+ T cells in T1N cases versus DQ0602 controls
NP17–31: nucleoprotein epitope, PR8 specific (GERQNATEIRASVGK)	significant overabundance
NP261–275: nucleoprotein epitope shared between A/California/07/2009 and PR8 (RSALILRGSVAHKSC; UniProt P03466 261-275, looked up, fragment)	little to no significant differences
